Format in all cases: biochemical
Assay [1] concerns the target T1, recombinant human FAPα (rhFAPα) (Homo sapiens, UniProt Q12884).
T1 construct: purchased R&S system (so in the source)
T1 sequence (Q12884 1-760): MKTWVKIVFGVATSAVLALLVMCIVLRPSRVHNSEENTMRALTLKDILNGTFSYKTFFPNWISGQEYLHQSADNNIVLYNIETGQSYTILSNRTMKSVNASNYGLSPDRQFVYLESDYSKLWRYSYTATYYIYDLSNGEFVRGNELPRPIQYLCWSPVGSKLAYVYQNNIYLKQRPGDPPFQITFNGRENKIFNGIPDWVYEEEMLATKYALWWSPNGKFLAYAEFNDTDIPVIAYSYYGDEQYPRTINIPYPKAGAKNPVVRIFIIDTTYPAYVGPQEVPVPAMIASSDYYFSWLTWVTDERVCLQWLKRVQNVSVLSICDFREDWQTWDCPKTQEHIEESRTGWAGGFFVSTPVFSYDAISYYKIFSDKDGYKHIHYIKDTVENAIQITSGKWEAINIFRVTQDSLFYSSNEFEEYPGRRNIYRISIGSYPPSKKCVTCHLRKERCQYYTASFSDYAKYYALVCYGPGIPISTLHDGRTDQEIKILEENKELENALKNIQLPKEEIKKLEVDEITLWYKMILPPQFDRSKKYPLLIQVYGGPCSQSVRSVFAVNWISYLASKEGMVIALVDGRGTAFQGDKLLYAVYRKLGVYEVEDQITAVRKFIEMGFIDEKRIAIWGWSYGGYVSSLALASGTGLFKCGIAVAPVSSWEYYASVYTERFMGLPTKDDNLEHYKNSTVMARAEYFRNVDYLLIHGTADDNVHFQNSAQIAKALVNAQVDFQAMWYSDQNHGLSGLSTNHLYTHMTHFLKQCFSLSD
Description: FAPα enzymatic exopeptidase (dipeptidase) activity assay. Conditions: for inhibition at 1 µM: 1 μM test compound, Z-Gly-Pro-AMC substrate, read-out: rhFAPα (% exo inh @ 1 μM); for IC50: exopeptidase, read-out: rhFAPα (exo IC50).

In assay [2] the target is T2, recombinant human DPPIV (rhDPPIV) (Homo sapiens, UniProt P27487).
T2 construct: purchased R&S system (so in the source)
T2 sequence (P27487 whole entry): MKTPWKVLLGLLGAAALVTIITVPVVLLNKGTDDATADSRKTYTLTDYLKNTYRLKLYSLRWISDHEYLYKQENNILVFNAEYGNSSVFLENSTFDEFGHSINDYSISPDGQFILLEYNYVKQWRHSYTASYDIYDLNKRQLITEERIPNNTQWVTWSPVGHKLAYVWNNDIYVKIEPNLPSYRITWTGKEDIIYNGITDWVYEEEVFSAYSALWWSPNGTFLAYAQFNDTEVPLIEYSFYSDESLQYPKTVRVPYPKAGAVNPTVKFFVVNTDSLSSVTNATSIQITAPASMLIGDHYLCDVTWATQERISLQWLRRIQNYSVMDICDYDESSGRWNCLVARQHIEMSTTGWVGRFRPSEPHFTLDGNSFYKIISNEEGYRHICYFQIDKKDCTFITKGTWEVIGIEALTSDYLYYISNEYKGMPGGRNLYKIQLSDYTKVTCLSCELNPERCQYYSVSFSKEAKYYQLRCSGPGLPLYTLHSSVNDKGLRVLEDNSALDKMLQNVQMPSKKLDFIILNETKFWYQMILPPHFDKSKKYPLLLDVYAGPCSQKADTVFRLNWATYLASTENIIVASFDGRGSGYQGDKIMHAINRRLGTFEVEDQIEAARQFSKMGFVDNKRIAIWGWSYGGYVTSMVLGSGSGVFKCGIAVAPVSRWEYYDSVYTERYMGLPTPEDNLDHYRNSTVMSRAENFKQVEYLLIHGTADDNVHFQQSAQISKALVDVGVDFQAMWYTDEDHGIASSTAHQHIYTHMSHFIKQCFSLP
The assay is described as follows: DPPIV enzymatic activity assay. The conditions noted are these: H-Gly-Pro-pNA substrate.

In assay [3] the target is T3, recombinant human PREP (rhPREP) (Homo sapiens, UniProt P48147).
T3 sequence (P48147 1-710): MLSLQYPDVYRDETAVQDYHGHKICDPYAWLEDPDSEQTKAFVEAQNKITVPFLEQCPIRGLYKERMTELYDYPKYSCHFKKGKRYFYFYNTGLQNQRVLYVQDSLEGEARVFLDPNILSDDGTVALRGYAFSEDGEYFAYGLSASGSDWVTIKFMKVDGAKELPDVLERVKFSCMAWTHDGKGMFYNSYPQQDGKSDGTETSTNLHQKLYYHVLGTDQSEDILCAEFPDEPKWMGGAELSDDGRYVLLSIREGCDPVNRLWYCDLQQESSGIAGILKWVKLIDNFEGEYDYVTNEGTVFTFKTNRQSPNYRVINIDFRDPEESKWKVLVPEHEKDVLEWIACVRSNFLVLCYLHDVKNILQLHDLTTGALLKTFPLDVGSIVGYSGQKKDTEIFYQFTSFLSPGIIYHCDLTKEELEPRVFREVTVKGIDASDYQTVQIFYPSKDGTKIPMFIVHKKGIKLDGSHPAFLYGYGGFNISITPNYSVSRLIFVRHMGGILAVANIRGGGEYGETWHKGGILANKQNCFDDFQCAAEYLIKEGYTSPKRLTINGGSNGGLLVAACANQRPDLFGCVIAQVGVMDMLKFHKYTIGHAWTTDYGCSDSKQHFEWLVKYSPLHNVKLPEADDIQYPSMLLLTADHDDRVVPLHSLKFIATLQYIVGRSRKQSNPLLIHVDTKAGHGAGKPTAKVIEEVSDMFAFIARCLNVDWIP
The assay is described as follows: PREP enzymatic activity assay. Conditions: Z-Gly-Pro-AMC substrate. On the procedure: (§1) 7-Amino-4-Methylcoumarin (AMC) release was detected by measuring fluorescence at Ex/Em 380/460 nm using a Multifunction Microplate Reader (Synergy 4, Biotek). All measurements were carried out in triplicate.

For assay [4], the target named is T4, recombinant human DPP9 (rhDPP9) (Homo sapiens, UniProt Q86TI2).
T4 construct: purchased R&S system (so in the source)
T4 sequence (Q86TI2 whole entry): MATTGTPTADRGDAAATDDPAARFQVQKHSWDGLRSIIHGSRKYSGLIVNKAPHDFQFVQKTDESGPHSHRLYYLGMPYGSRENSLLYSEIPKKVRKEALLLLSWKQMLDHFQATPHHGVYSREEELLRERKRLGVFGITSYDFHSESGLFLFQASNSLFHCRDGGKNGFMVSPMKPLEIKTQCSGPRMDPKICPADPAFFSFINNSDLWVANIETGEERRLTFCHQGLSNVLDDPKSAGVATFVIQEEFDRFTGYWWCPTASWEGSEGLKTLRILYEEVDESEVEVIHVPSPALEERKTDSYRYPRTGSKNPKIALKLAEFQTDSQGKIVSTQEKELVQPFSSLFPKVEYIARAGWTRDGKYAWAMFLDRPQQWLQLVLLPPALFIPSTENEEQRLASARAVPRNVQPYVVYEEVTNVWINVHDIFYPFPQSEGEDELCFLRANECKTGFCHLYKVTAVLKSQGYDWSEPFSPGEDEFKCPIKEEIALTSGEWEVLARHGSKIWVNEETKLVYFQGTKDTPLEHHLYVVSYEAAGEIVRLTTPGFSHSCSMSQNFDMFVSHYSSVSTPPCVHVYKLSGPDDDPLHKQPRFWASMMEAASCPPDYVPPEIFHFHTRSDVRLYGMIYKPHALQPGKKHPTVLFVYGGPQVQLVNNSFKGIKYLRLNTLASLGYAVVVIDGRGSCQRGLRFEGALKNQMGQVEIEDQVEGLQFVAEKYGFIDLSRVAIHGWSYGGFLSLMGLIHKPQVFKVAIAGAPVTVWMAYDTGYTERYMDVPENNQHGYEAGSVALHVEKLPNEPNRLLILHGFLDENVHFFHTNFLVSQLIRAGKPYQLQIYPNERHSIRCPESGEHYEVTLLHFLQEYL
Description: DPP9 enzymatic activity assay. The conditions noted are these: H-Gly-Pro-AMC substrate. As to the method: as §1

The next assay concerns the target T5, mouse plasma FAPα (Mus musculus, UniProt P97321).
T5 construct: from tissue; host or cells: mouse plasma (C57BL/6, EDTA)
T5 sequence (P97321 24-761 limits assumed): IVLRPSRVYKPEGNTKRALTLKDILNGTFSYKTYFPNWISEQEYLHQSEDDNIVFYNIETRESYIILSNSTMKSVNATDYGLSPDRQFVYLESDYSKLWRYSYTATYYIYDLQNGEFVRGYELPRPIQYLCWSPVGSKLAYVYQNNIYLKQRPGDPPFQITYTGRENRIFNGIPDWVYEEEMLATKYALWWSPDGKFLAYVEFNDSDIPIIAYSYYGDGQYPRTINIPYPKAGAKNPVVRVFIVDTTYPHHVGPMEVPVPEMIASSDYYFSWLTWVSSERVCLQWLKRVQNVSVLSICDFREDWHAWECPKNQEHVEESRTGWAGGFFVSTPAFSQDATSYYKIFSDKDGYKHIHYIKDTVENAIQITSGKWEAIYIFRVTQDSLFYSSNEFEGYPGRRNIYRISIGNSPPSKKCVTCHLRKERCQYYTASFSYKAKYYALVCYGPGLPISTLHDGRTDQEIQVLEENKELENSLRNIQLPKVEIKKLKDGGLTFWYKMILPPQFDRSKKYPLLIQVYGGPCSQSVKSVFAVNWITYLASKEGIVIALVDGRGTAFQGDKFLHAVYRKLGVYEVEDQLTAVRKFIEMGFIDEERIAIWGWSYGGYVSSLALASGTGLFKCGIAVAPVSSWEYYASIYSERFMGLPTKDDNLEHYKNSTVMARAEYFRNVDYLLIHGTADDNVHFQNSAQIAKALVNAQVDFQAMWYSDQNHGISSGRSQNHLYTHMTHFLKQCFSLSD
Description: FAPα enzymatic activity in mouse plasma. The conditions noted are these: C57BL/6 mouse plasma; PRXS-AMC substrate; read-out: mouse plasma FAPα (PRXS-AMC) (exo IC50). On the procedure:
The blood sample was immediately centrifuged at approximately 9000 g at 4° C. for 5 minutes. Plasma was separated and stored at −80° C. in aliquots of 300 μL. […] The assay was performed for 1 hour at 37° C. protected from light. 7-Amino-4-Methylcoumarin (AMC) release was detected measuring fluorescence at an excitation wavelength of 380 nm and an emission wavelength of 460 nm using a Multifunction Microplate Reader (Synergy 4, Biotek). All measurements were carried out at least as a single point.

The next assay deals with T6, mouse plasma DPPIV (Mus musculus, UniProt P28843).
T6 construct: from tissue; host or cells: mouse plasma (C57BL/6, EDTA)
T6 sequence (P28843 37-760 limits assumed): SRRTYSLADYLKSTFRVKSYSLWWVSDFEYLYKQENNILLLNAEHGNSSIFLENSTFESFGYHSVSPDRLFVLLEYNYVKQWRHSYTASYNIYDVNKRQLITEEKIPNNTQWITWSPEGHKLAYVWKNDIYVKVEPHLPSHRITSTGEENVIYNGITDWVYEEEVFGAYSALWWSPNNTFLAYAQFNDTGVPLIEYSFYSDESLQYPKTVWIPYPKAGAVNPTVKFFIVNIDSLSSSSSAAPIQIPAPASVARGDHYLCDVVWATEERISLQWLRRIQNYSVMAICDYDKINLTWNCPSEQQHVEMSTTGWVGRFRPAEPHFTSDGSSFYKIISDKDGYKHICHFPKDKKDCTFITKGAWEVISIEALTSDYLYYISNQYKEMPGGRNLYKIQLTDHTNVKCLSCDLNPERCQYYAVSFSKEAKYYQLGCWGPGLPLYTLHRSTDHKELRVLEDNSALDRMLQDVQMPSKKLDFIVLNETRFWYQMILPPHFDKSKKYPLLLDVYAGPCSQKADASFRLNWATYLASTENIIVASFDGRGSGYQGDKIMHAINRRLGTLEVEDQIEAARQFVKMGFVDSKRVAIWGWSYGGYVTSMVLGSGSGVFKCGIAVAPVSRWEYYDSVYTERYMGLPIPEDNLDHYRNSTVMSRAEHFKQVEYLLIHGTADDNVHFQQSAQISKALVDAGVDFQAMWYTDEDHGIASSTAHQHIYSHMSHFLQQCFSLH
The assay is described as follows: DPPIV enzymatic activity in mouse plasma. Conditions: C57BL/6 mouse plasma; H-Gly-Pro-AMC substrate. As to the method:
Approximately 500 μL of whole blood from one C57BL/6 mouse was harvested into BD Microtainer® tubes (K2) EDTA (#365974, Becton Dickinson and Co.) via terminal cardiac puncture. The blood sample was immediately centrifuged at approximately 9000 g at 4° C. for 5 minutes. Plasma was separated and stored at −80° C. in aliquots of 300 μL. To assay baseline DPPIV enzymatic exopeptidase activity, 5 μL of thawed, mouse plasma was diluted (1:5) in buffer (100 mM Tris-HCl, 400 mM NaCl, 50 mM salicylic acid, 1 mM EDTA, pH 7.5) and mixed with 35 µL of the same buffer before being pre-incubated with different concentrations of 10 μL of test compounds or DMSO vehicle for 15 minutes at 37° C. in 96-well black plates (Nunc, #237108). After pre-incubation, 50 μL of 200 μM dipeptide substrate H-Gly-Pro-AMC (Bachem, #L-1225) was added to the mixture. The assay was performed for 1 hour at 37° C. 7-Amino-4-Methylcoumarin (AMC) release was detected measuring fluorescence at an excitation wavelength of 360 nm and an emission wavelength of 460 nm using a Multifunction Microplate Reader (Synergy 4, Biotek). All measurements were carried out at least in duplicate.

For seven compounds, inhibition and IC50 results are on record in patent US11780821B2, “Inhibitors of fibroblast activation protein” (Praxis Biotech LLC, priority 2017, dated 2023).

Read-outs that look alike come from different tables or passages of the source.

Consider `N#C[C@@H]1CC(F)(F)CN1C(=O)CNC(=O)c1c[nH]c(=O)cc1Cc1ccccc1` [Compound 121, (S)-4-benzyl-N-(2-(2-cyano-4,4-difluoropyrrolidin-1-yl)-2-oxoethyl)-6-oxo-1,6-dihydropyridine-3-carboxamide], for which, in assay [1], the inhibition at 1 µM is more than 50%. Moreover, the IC50 in assay [1] (Table 2, Z-Gly-Pro-AMC) is less than 1 µM; in assay [1] (Table 3), less than 1 µM; in assay [2] it was more than 10 µM; in assay [3], 1 to 10 µM; in assay [4] it was 1 to 10 µM; at mouse plasma FAPα, less than 1 µM. In addition, the IC50 on mouse plasma DPPIV was more than 10 µM.

Consider `CC(c1ccccc1)c1cnccc1C(=O)NCC(=O)N1CC(F)(F)C[C@H]1C#N` (stereo partly drawn) [Compound 123, N-(2-((S)-2-cyano-4,4-difluoropyrrolidin-1-yl)-2-oxoethyl)-3-(1-phenylethyl)isonicotinamide], for which the inhibition at 1 µM in assay [1] is more than 50%. Further, the IC50 was less than 1 µM in assay [1] (Table 2, Z-Gly-Pro-AMC); less than 1 µM in assay [1] (Table 3); more than 10 µM in assay [2]; 1 to 10 µM in assay [3]; 1 to 10 µM in assay [4]; more than 10 µM at mouse plasma DPPIV.

Regarding `N#C[C@@H]1CC(F)(F)CN1C(=O)CNC(=O)c1ccncc1-c1ccc(Cl)c(F)c1` [Compound 111, (S)-3-(4-chloro-3-fluorophenyl)-N-(2-(2-cyano-4,4-difluoropyrrolidin-1-yl)-2-oxoethyl)isonicotinamide], in assay [1], the inhibition at 1 µM was more than 50%. In addition, the IC50 was less than 1 µM in assay [1] (Table 2, Z-Gly-Pro-AMC); less than 1 µM in assay [1] (Table 3); 1 to 10 µM in assay [2]; more than 10 µM in assay [3]; more than 10 µM in assay [4]; less than 1 µM on mouse plasma FAPα. Also, at mouse plasma DPPIV, the IC50 is 1 to 10 µM.

Consider `Cc1ccc(-c2cnccc2C(=O)NCC(=O)N2CC(F)(F)C[C@H]2C#N)o1` [Compound 106, (S)—N-(2-(2-cyano-4,4-difluoropyrrolidin-1-yl)-2-oxoethyl)-3-(5-methylfuran-2-yl)isonicotinamide], for which the inhibition at 1 µM in assay [1] was more than 50%. The IC50 in assay [1] (Table 2, Z-Gly-Pro-AMC) is less than 1 µM; in assay [1] (Table 3) it was less than 1 µM; in assay [2], more than 10 µM; in assay [3], more than 10 µM; in assay [4] it was more than 10 µM.

`N#C[C@@H]1CC(F)(F)CN1C(=O)CNC(=O)c1ccncc1Nc1ccnc2ccccc12` [Compound 119, (S)—N-(2-(2-cyano-4,4-difluoropyrrolidin-1-yl)-2-oxoethyl)-3-(quinolin-4-ylamino)isonicotinamide]: in assay [1], the inhibition at 1 µM is more than 50%. Besides, the IC50 was less than 1 µM in assay [1] (Table 2, Z-Gly-Pro-AMC); less than 1 µM in assay [1] (Table 3); more than 10 µM in assay [2]; more than 10 µM in assay [3]; more than 10 µM in assay [4].

`Cc1noc(C)c1-c1cnccc1C(=O)NCC(=O)N1CC(F)(F)C[C@H]1C#N` [Compound 110, (S)—N-(2-(2-cyano-4,4-difluoropyrrolidin-1-yl)-2-oxoethyl)-3-(3,5-dimethylisoxazol-4-yl)isonicotinamide]: the inhibition at 1 µM in assay [1] is more than 50%. In addition, the IC50 in assay [1] (Table 2, Z-Gly-Pro-AMC) is less than 1 µM; in assay [1] (Table 3), less than 1 µM; in assay [2], more than 10 µM; in assay [3], more than 10 µM; in assay [4] it was more than 10 µM.

`N#C[C@@H]1CC(F)(F)CN1C(=O)CNC(=O)c1c[nH]c(=O)cc1-c1ccccc1` [Compound 29, (S)—N-(2-(2-cyano-4,4-difluoropyrrolidin-1-yl)-2-oxoethyl)-6-oxo-4-phenyl-1,6-dihydropyridine-3-carboxamide]: the inhibition at 1 µM in assay [1] is more than 50%. The IC50 was less than 1 µM in assay [1] (Table 2, Z-Gly-Pro-AMC); less than 1 µM in assay [1] (Table 3); 1 to 10 µM in assay [2]; more than 10 µM in assay [3]; more than 10 µM in assay [4].

A word on the IC50: it is the point on the concentration scale where inhibition reaches its midpoint.
